Results reported in patent US20130230586A1, “Treatment of Tinnitus and Related Auditory Dysfunctions” (LINK RESEARCH & GRANTS CORPORATION, priority 2010, published 2013).

Tests used:
[1] = Description: In the initial tests as reported in PCT/IB2010/051373 tablets were administered three times daily.
Four selected outcome variables were used in this preliminary analysis: Global improvement (GI), Tinnitus Handicap Inventory (THI) and Tinnitus Impairment Questionnaire (TBF 12) questionnaires and Minimum Masking Levels (MML). The changes on the outcome variables were obtained by subtracting week 12's scores from the screening scores. The presence of a negative result means a decrease on values.
In Table 2 the changes on outcome variables are listed by Global Improvement (GI) classification, as follows: GI 1=much better; 2=better; 3=slightly better; 4=no change; 5=slightly worse; 6=worse; 7=much worse; THI: Tinnitus Handicap Inventory, TBF 12: Tinnitus Impairment Questionnaire; MML: minimal masking levels, measured in dB HL (Hearing Level).
Four different criteria were established to determine whether a subject responded or not to treatment (see Table 3).

[2] = 10 to 40 mg over a 12 week period; 120 fibromyalgia patients; cited from earlier work

With CN(C)CCC=C1c2ccccc2C=Cc2ccccc21 [Cyclobenzaprine] the Responders n ([1]; Criteria 2: Criteria 1 + decrease on THI) was 11, the Tolerability ([1]; common side effects like constipation and dry mouth may be experienced) was “tolerated well by most subjects” and the “Number of subjects Better or Much Better on GI” value ([1]; of 15 subjects, FIG. 1) was 8 subjects. For the same molecule, the “Number of subjects Slightly Better, Better or Much Better on GI” value ([1]; of 15 subjects, FIG. 1) was 11 subjects, the “Number of subjects with changes on tinnitus pitch” value ([1]; out of 15 subjects) was 5 subjects and the “Remark in place of MML change (intermittent tinnitus)” value ([1]; subject 3, MML not possible to measure) was “change on intensity and less episodes”. The “Trial suspension due to side effects” value ([1]; subject 6) was “Trial suspended because of side effects”, the “Course of Minimum Masking Levels (MML) during the tests” value ([1]; subjects 4, 8, 9, 10 and 11, FIGS. 2-6) was “progressive reduction” and the “Effect on tinnitus severity and tinnitus loudness” value ([1]; tested subjects) was “positive effect”. For the same molecule, the Safety of administration ([1]; tested subjects) was “safe to administer”, the “Quality of sleep and pain score” value [2] was “significantly improved” and the “Total number of tender points and muscle tightness” value [2] was “reduction”.
